#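 Compound exposure: 48 hours, 5 concentrations, 96-well plates. GI50 = concentration required for 50% inhibition of growth.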 Calls of active or inactive are those of the source. Rule as the data show it: active = GI50 up to about 1.1 µM and inactive = higher.
# Tests used:
# Experiment in all cases: NCI-60 cell line screen, 48 h
# 786-0 = system: 786-0
# A498 = system: A498
# A549 = system: A549
# ACHN = system: ACHN
# CAKI-1 = system: CAKI-1
# CCRF-CEM = system: CCRF-CEM
# COLO 205 = system: COLO 205
# DU-145 = system: DU-145
# EKVX = system: EKVX
# HCC 2998 = system: HCC 2998
# HCT-116 = system: HCT-116
# HCT-15 = system: HCT-15
# HL-60 = system: HL-60
# HOP-62 = system: HOP-62
# HOP-92 = system: HOP-92
# HT-29 = system: HT-29
# Hs-578T = system: Hs-578T
# IGROV-1 = system: IGROV-1
# K562 = system: K562
# KM12 = system: KM12
# LOX IMVI = system: LOX IMVI
# M14 = system: M14
# MCF7 = system: MCF7
# MDA-MB-231 = system: MDA-MB-231
# MDA-MB-435 = system: MDA-MB-435
# MDA-N = system: MDA-N
# MOLT-4 = system: MOLT-4
# Malme-3M = system: Malme-3M
# NCI-H226 = system: NCI-H226
# NCI-H23 = system: NCI-H23
# NCI-H460 = system: NCI-H460
# NCI-H522 = system: NCI-H522
# NCI/ADR-RES = system: NCI/ADR-RES
# OVCAR-3 = system: OVCAR-3
# OVCAR-4 = system: OVCAR-4
# OVCAR-5 = system: OVCAR-5
# OVCAR-8 = system: OVCAR-8
# PC-3 = system: PC-3
# RPMI-8226 = system: RPMI-8226
# RXF 393 = system: RXF 393
# SF-268 = system: SF-268
# SF-295 = system: SF-295
# SF-539 = system: SF-539
# SK-MEL-28 = system: SK-MEL-28
# SK-MEL-2 = system: SK-MEL-2
# SK-MEL-5 = system: SK-MEL-5
# SK-OV-3 = system: SK-OV-3
# SN12C = system: SN12C
# SNB-19 = system: SNB-19
# SNB-75 = system: SNB-75
# SR = system: SR
# SW-620 = system: SW-620
# T47D = system: T47D
# TK-10 = system: TK-10
# U-251 = system: U-251
# UACC-257 = system: UACC-257
# UACC-62 = system: UACC-62
# UO-31 = system: UO-31
# BT-549 = system: BT-549
structure (smiles),measurement,setting,value
Cc1ccccc1NC(=S)N/N=C1\C(=O)Nc2ccccc21,GI50,786-0,> 100 µM (inactive)
same,GI50,A498,86.3 µM (inactive)
same,GI50,A549,> 100 µM (inactive)
same,GI50,ACHN,> 100 µM (inactive)
same,GI50,CAKI-1,> 100 µM (inactive)
same,GI50,CCRF-CEM,> 100 µM (inactive)
same,GI50,COLO 205,> 100 µM (inactive)
same,GI50,DU-145,31.4 µM (inactive)
same,GI50,EKVX,> 100 µM (inactive)
same,GI50,HCC 2998,> 100 µM (inactive)
same,GI50,HCT-116,> 100 µM (inactive)
same,GI50,HCT-15,> 100 µM
same,GI50,HL-60,> 100 µM (inactive)
same,GI50,HOP-62,> 100 µM (inactive)
same,GI50,HOP-92,> 100 µM (inactive)
same,GI50,HT-29,> 100 µM (inactive)
same,GI50,Hs-578T,> 100 µM (inactive)
same,GI50,IGROV-1,> 100 µM (inactive)
same,GI50,K562,> 100 µM (inactive)
same,GI50,KM12,> 100 µM (inactive)
same,GI50,LOX IMVI,> 100 µM (inactive)
same,GI50,M14,> 100 µM (inactive)
same,GI50,MCF7,> 100 µM (inactive)
same,GI50,MDA-MB-231,> 100 µM (inactive)
same,GI50,MDA-MB-435,> 100 µM (inactive)
same,GI50,MDA-N,> 100 µM (inactive)
same,GI50,MOLT-4,> 100 µM (inactive)
same,GI50,Malme-3M,> 100 µM (inactive)
same,GI50,NCI-H226,> 100 µM (inactive)
same,GI50,NCI-H23,> 100 µM (inactive)
same,GI50,NCI-H460,> 100 µM (inactive)
same,GI50,NCI-H522,> 100 µM (inactive)
same,GI50,NCI/ADR-RES,> 100 µM (inactive)
same,GI50,OVCAR-3,> 100 µM (inactive)
same,GI50,OVCAR-4,> 100 µM (inactive)
same,GI50,OVCAR-5,> 100 µM (inactive)
same,GI50,OVCAR-8,> 100 µM (inactive)
same,GI50,PC-3,> 100 µM (inactive)
same,GI50,RPMI-8226,> 100 µM (inactive)
same,GI50,RXF 393,> 100 µM (inactive)
same,GI50,SF-268,15.1 µM (inactive)
same,GI50,SF-295,> 100 µM (inactive)
same,GI50,SF-539,> 100 µM (inactive)
same,GI50,SK-MEL-28,15.1 µM (inactive)
same,GI50,SK-MEL-2,> 100 µM (inactive)
same,GI50,SK-MEL-5,> 100 µM (inactive)
same,GI50,SK-OV-3,> 100 µM (inactive)
same,GI50,SN12C,> 100 µM (inactive)
same,GI50,SNB-19,> 100 µM (inactive)
same,GI50,SNB-75,> 100 µM (inactive)
same,GI50,SR,70.6 µM (inactive)
same,GI50,SW-620,> 100 µM (inactive)
same,GI50,T47D,> 100 µM (inactive)
same,GI50,TK-10,> 100 µM (inactive)
same,GI50,U-251,> 100 µM (inactive)
same,GI50,UACC-257,> 100 µM (inactive)
same,GI50,UACC-62,> 100 µM (inactive)
same,GI50,UO-31,> 100 µM (inactive)
O[C@@H]1CCC[C@@H]2NC[C@@H](c3ccc4c(c3)OCO4)[C@H]12,GI50,786-0,> 100 µM (inactive)
same,GI50,A498,> 100 µM (inactive)
same,GI50,A549,> 100 µM (inactive)
same,GI50,ACHN,> 100 µM (inactive)
same,GI50,CAKI-1,> 100 µM (inactive)
same,GI50,CCRF-CEM,> 100 µM (inactive)
same,GI50,COLO 205,> 100 µM (inactive)
same,GI50,DU-145,> 100 µM (inactive)
same,GI50,EKVX,> 100 µM (inactive)
same,GI50,HCC 2998,> 100 µM (inactive)
same,GI50,HCT-15,> 100 µM
same,GI50,HL-60,96.4 µM (inactive)
same,GI50,HOP-62,> 100 µM (inactive)
same,GI50,HOP-92,> 100 µM (inactive)
same,GI50,HT-29,> 100 µM (inactive)
same,GI50,Hs-578T,99.1 µM (inactive)
same,GI50,IGROV-1,> 100 µM (inactive)
same,GI50,K562,> 100 µM (inactive)
same,GI50,KM12,> 100 µM (inactive)
same,GI50,LOX IMVI,> 100 µM (inactive)
same,GI50,M14,> 100 µM (inactive)
same,GI50,MCF7,> 100 µM (inactive)
same,GI50,MDA-MB-231,> 100 µM (inactive)
same,GI50,MDA-MB-435,> 100 µM (inactive)
same,GI50,MDA-N,> 100 µM (inactive)
same,GI50,MOLT-4,> 100 µM (inactive)
same,GI50,Malme-3M,> 100 µM (inactive)
same,GI50,NCI-H226,> 100 µM (inactive)
same,GI50,NCI-H23,> 100 µM (inactive)
same,GI50,NCI-H460,> 100 µM (inactive)
same,GI50,NCI-H522,> 100 µM (inactive)
same,GI50,NCI/ADR-RES,> 100 µM (inactive)
same,GI50,OVCAR-3,> 100 µM (inactive)
same,GI50,OVCAR-4,> 100 µM (inactive)
same,GI50,OVCAR-5,> 100 µM (inactive)
same,GI50,OVCAR-8,> 100 µM (inactive)
same,GI50,PC-3,> 100 µM (inactive)
same,GI50,RPMI-8226,> 100 µM (inactive)
same,GI50,RXF 393,> 100 µM (inactive)
same,GI50,SF-268,> 100 µM (inactive)
same,GI50,SF-295,> 100 µM (inactive)
same,GI50,SF-539,> 100 µM (inactive)
same,GI50,SK-MEL-28,> 100 µM (inactive)
same,GI50,SK-MEL-2,> 100 µM (inactive)
same,GI50,SK-MEL-5,> 100 µM (inactive)
same,GI50,SK-OV-3,> 100 µM (inactive)
same,GI50,SNB-19,> 100 µM (inactive)
same,GI50,SNB-75,> 100 µM (inactive)
same,GI50,SR,> 100 µM (inactive)
same,GI50,SW-620,> 100 µM (inactive)
same,GI50,T47D,> 100 µM (inactive)
same,GI50,TK-10,> 100 µM (inactive)
same,GI50,U-251,> 100 µM (inactive)
same,GI50,UACC-257,> 100 µM (inactive)
same,GI50,UACC-62,> 100 µM (inactive)
same,GI50,UO-31,> 100 µM (inactive)
NC(=S)N/N=C1\NC(=O)/C(=C/c2ccc3c(c2)OCO3)S1,GI50,786-0,33.9 µM (inactive)
same,GI50,A498,14.3 µM (inactive)
same,GI50,A549,30.6 µM (inactive)
same,GI50,ACHN,32.1 µM (inactive)
same,GI50,BT-549,25.1 µM (inactive)
same,GI50,CAKI-1,25.3 µM (inactive)
same,GI50,COLO 205,26.3 µM (inactive)
same,GI50,DU-145,28.2 µM (inactive)
same,GI50,EKVX,21.6 µM (inactive)
same,GI50,HCC 2998,33.7 µM (inactive)
same,GI50,HCT-116,29.1 µM (inactive)
same,GI50,HCT-15,26.7 µM
same,GI50,HL-60,20.6 µM (inactive)
same,GI50,HOP-62,20.9 µM (inactive)
same,GI50,HOP-92,21.5 µM (inactive)
same,GI50,HT-29,28.6 µM (inactive)
same,GI50,IGROV-1,17.1 µM (inactive)
same,GI50,KM12,20.9 µM (inactive)
same,GI50,LOX IMVI,28.3 µM (inactive)
same,GI50,M14,24.5 µM (inactive)
same,GI50,MCF7,32.7 µM (inactive)
same,GI50,MDA-MB-231,25.8 µM (inactive)
same,GI50,MDA-MB-435,27.1 µM (inactive)
same,GI50,MDA-N,27.5 µM (inactive)
same,GI50,MOLT-4,21.4 µM (inactive)
same,GI50,NCI-H226,23.5 µM (inactive)
same,GI50,NCI-H23,22.9 µM (inactive)
same,GI50,NCI-H460,30.8 µM (inactive)
same,GI50,NCI/ADR-RES,27.8 µM (inactive)
same,GI50,OVCAR-3,19.2 µM (inactive)
same,GI50,OVCAR-4,24.3 µM (inactive)
same,GI50,OVCAR-5,24.2 µM (inactive)
same,GI50,OVCAR-8,24.8 µM (inactive)
same,GI50,RXF 393,21.1 µM (inactive)
same,GI50,SF-268,31.7 µM (inactive)
same,GI50,SF-295,36.5 µM (inactive)
same,GI50,SF-539,35.1 µM (inactive)
same,GI50,SK-MEL-28,24 µM (inactive)
same,GI50,SK-MEL-2,27.2 µM (inactive)
same,GI50,SK-MEL-5,16.3 µM (inactive)
same,GI50,SK-OV-3,30 µM (inactive)
same,GI50,SN12C,36.7 µM (inactive)
same,GI50,SNB-19,18 µM (inactive)
same,GI50,SNB-75,14.3 µM (inactive)
same,GI50,SW-620,31.8 µM (inactive)
same,GI50,T47D,19.3 µM (inactive)
same,GI50,TK-10,40.8 µM (inactive)
same,GI50,U-251,22.6 µM (inactive)
same,GI50,UACC-257,31.6 µM (inactive)
same,GI50,UO-31,30.1 µM (inactive)

# From ChEMBL document CHEMBL1201862, “PubChem BioAssay data set” (2004)
